We go through two compounds from EP0416804B1, “External preparation containing amusulosin” (YAMANOUCHI PHARMACEUTICAL CO., LTD., priority 1989, dated 1991).

What is called solubility is how much of the substance goes into solution per volume.

SMILES strings stand for the structures. ≈ marks a conversion by molar mass, not a printed value. Where two headings read alike, the source gives them in different places.

A short description of data set [1]: Solubility of AB-250 in water, ethanol and aqueous alcohol. Format: physicochemical. An excerpt: 1. Data on the solubility increasing effect of aqueous alcohol:
The solubility of AB-250 in water of pH 5-7 was 0.4% and that in ethanol was 0.03%.
It is, thus, evident that the use of aqueous ethanol results in a remarkable increase in the solubility of the active compound.

For data set [2], the system named is ai-receptor. As to conditions: compared with prazosin hydrochloride; cited from earlier work.
The test system of data set [3] is rabbit prostate, urethra and vesical triangle (trigone of the bladder). As to conditions: rabbit tissues; cited from earlier work.
Data set [4] relates to human urethra and vesical triangle. As to conditions: human tissues; cited from earlier work.

Regarding `CCOc1ccccc1OCCNC(C)Cc1ccc(OC)c(S(N)(=O)=O)c1` (stereo not drawn) [AB-250, 5-[2-[[2-(o-Ethoxyphenoxy)-ethyl]amino]propyl]-2-methoxybenzenesulfonamide], the solubility is 51 mg/mL (≈ 125 mM) in data set [1] (50% ethanol, organic solvent or mixture, Michaelis buffer containing 50% of ethanol, pH 8, read-out: solubility in aqueous ethanol containing 50% of ethanol); 48 mg/mL (≈ 117 mM) in data set [1] (60% ethanol, organic solvent or mixture, Michaelis buffer containing 60% of ethanol, pH 7, read-out: solubility in aqueous ethanol containing 60% of ethanol); 0.3 mg/mL (≈ 0.734 mM) in data set [1] (ethanol, organic solvent or mixture, read-out: solubility in ethanol); 4 mg/mL (≈ 9.79 mM) in data set [1] (water of pH 5-7, read-out: solubility in water). The “greater solubility in aqueous alcohol” value in data set [1] (aqueous alcohol compared with water and pure alcohol) is given as “no less than 10 fold”. Besides, the “solubility increasing effect with isopropyl alcohol in lieu of ethanol” value in data set [1] (isopropyl alcohol used in lieu of ethanol) is given as “More or less the same effect”.

As for `CCOc1ccccc1OCCNC(C)Cc1ccc(OC)c(S(N)(=O)=O)c1` (stereo not drawn) [amusulosin, 5-[2-[[2-(o-Ethoxyphenoxy)-ethyl]amino]propyl]-2-methoxybenzenesulfonamide], the ai-receptor blocking activity result in data set [2] is recorded as “higher than that of prazosin hydrochloride”. Moreover, the “contraction of the rabbit prostate, urethra and vesical triangle” value in data set [3] is “reduces the contraction”. Besides, the “contraction of the human urethra and vesical triangle” value in data set [4] was “reduces the contraction”.
